Source: publication PMC12682859, “Interconnected roles of mitochondrial carrier proteins ANT, PiT, and UCPs in proton transport” (Frontiers in Molecular Biosciences, 2025)
Blank lines part the entries; values can stand above or below the molecule they belong to.

B2: uncoupling protein 4 (UCP4), recombinant His6-tagged (natural protein, human, UniProt O95847 1-323, looked up)
chain: MSVPEEEERLLPLTQRWPRASKFLLSGCAATVAELATFPLDLTKTRLQMQGEAALARLGDGARESAPYRGMVRTALGIIEEEGFLKLWQGVTPAIYRHVVYSGGRMVTYEHLREVVFGKSEDEHYPLWKSVIGGMMAGVIGQFLANPTDLVKVQMQMEGKRKLEGKPLRFRGVHHAFAKILAEGGIRGLWAGWVPNIQRAALVNMGDLTTYDTVKHYLVLNTPLEDNIMTHGLSSLCSGLVASILGTPADVIKSRIMNQPRDKQGRGLLYKSSTDCLIQAVQGEGFMSLYKGFLPSWLRMTPWSMVFWLTYEKIREMSGVSPF
notes: human UCP4, UniProt O95847; Cloned in pET26b(+); purified as a monomer in OG, tetramer after reconstitution in liposomes; source: E. coli BL21 (DE3) or BL21 CodonPlus (DE3)-RIPL, extracted from bacterial membranes, purified (Ni-NTA IMAC, 1% OG); not shown: pelB leader, N-terminal, cleaved; His6, N-terminal, kept
B3: uncoupling protein 2 (UCP2), recombinant His6-tagged (natural protein, human, UniProt P55851 1-309, looked up)
chain: MVGFKATDVPPTATVKFLGAGTAACIADLITFPLDTAKVRLQIQGESQGPVRATASAQYRGVMGTILTMVRTEGPRSLYNGLVAGLQRQMSFASVRIGLYDSVKQFYTKGSEHASIGSRLLAGSTTGALAVAVAQPTDVVKVRFQAQARAGGGRRYQSTVNAYKTIAREEGFRGLWKGTSPNVARNAIVNCAELVTYDLIKDALLKANLMTDDLPCHFTSAFGAGFCTTVIASPVDVVKTRYMNSALGQYSSAGHCALTMLQKEGPRAFYKGFMPSFLRLGSWNVVMFVTYEQLKRALMAACTSREAPF
notes: human UCP2, UniProt P55851; Cloned in pET26b(+); purified as a monomer in OG, tetramer after reconstitution in liposomes; source: E. coli BL21 (DE3) or BL21 CodonPlus (DE3)-RIPL, extracted from bacterial membranes, purified (Ni-NTA IMAC, 1% OG); not shown: pelB leader, N-terminal, cleaved; His6, N-terminal, kept

How the values were obtained:
[1] = target: T1, UCP2:ANT1 heterotetramer (1:1) (Homo sapiens; Bos taurus, UniProt P02722+P55851); assay type: biochemical; conditions: 500 uM ATP; EYPC without added cardiolipin, 100 uM palmitic acid, valinomycin, pH 7.2, 25 C
T1 construct: co-reconstituted 1:1 in liposomes from purified N-terminally His6-tagged monomers (bovine ANT1, human UCP2); heterotetramer
T1 sequence (P55851 1-309): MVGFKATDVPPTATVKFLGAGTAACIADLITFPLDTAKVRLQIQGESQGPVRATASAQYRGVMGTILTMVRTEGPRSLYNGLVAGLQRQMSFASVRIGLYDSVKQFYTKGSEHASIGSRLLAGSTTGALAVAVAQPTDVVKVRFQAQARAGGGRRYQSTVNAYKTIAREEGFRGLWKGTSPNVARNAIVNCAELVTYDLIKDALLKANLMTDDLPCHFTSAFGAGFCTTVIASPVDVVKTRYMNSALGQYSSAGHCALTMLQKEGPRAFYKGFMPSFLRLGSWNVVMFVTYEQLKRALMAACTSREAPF
T1 sequence (P02722 2-298): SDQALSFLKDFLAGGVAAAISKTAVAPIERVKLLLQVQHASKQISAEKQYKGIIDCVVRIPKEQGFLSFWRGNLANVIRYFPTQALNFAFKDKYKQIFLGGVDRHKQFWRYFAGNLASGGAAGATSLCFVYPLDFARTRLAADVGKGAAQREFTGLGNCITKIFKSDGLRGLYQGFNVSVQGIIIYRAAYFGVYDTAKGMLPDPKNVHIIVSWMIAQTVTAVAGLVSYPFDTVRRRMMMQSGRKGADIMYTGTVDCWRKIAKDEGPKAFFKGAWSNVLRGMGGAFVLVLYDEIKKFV

[2] = target: T2, UCP4:ANT1 heterotetramer (1:1) (Homo sapiens; Bos taurus, UniProt O95847+P02722); assay type: biochemical; conditions: 500 uM ATP; EYPC without added cardiolipin, 100 uM palmitic acid, valinomycin, pH 7.2, 25 C
T2 construct: gene SLC25A27; co-reconstituted 1:1 in liposomes from purified N-terminally His6-tagged monomers (bovine ANT1, human UCP4); heterotetramer
T2 sequence (O95847 1-323): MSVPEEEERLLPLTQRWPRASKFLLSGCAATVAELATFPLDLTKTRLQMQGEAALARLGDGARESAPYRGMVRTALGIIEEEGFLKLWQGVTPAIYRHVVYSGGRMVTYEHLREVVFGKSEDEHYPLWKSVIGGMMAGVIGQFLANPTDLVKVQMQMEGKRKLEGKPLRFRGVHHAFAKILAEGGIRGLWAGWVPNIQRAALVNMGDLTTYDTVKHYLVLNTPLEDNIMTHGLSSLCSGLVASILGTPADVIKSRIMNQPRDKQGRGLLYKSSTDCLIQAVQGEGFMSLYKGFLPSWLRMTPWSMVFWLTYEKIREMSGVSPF
T2 sequence (P02722 2-298): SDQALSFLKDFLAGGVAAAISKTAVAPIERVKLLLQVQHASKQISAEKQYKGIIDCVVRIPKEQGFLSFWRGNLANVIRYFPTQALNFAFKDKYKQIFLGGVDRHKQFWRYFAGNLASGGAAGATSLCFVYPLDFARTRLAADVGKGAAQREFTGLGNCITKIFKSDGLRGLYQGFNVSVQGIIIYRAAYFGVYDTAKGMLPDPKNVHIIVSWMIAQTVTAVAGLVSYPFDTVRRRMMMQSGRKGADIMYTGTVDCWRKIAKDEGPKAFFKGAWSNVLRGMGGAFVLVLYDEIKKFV

ANT1 [3] = target: T3, ANT1 (Bos taurus, UniProt P02722); set-up: gene SLC25A4; conditions: 500 uM ATP; EYPC without added cardiolipin, 100 uM palmitic acid, valinomycin, pH 7.2, 25 C
T3 sequence (P02722 2-298): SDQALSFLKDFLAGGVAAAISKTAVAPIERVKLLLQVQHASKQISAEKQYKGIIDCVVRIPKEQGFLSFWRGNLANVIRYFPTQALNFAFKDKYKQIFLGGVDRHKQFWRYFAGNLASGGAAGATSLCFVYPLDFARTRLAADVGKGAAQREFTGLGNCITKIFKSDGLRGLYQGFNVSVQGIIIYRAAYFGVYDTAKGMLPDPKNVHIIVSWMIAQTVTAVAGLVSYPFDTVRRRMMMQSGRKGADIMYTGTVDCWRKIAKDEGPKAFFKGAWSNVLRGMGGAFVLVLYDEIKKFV

PiT (PiT-B) = target: T4, PiT (PiT-B) (Homo sapiens, UniProt Q00325); experiment: SPQ fluorescence proton efflux in proteoliposomes; assay type: biochemical; conditions: EYPC liposomes, valinomycin, pH 7.2, 25 C
T4 construct: gene SLC25A3; isoform B, N-terminal His6 tag kept, pelB leader removed; E. coli membranes; mainly monomer in liposomes
T4 sequence (Q00325 50-361 isoform Q00325-2): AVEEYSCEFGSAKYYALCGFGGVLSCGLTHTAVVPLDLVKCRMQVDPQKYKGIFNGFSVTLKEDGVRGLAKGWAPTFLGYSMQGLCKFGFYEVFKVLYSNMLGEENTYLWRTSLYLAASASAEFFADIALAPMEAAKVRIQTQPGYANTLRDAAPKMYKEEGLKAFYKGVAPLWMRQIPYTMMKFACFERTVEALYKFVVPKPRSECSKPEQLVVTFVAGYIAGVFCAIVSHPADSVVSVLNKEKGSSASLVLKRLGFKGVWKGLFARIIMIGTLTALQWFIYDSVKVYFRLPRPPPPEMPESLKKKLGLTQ

UCP2 [4] = target: T5, UCP2 (Homo sapiens, UniProt P55851); experiment: SPQ fluorescence proton efflux in proteoliposomes; assay type: biochemical; conditions: EYPC liposomes, valinomycin, pH 7.2, 25 C
T5 construct: full length, N-terminal His6 tag kept, pelB leader removed; E. coli membranes; homotetramer in liposomes
T5 sequence (P55851 1-309): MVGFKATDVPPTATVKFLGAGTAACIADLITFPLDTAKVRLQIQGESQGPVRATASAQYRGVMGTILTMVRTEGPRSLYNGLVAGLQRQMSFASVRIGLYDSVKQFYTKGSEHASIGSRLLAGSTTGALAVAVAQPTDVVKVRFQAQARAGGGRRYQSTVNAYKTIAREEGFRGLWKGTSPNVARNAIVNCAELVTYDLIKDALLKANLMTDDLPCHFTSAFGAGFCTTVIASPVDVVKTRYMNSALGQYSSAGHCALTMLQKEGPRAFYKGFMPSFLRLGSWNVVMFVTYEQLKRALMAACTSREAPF

UCP4 [5] = target: T6, UCP4 (Homo sapiens, UniProt O95847); experiment: SPQ fluorescence proton efflux in proteoliposomes; assay type: biochemical; conditions: EYPC liposomes, valinomycin, pH 7.2, 25 C
T6 construct: gene SLC25A27; full length, N-terminal His6 tag kept, pelB leader removed; E. coli membranes; homotetramer in liposomes
T6 sequence (O95847 1-323): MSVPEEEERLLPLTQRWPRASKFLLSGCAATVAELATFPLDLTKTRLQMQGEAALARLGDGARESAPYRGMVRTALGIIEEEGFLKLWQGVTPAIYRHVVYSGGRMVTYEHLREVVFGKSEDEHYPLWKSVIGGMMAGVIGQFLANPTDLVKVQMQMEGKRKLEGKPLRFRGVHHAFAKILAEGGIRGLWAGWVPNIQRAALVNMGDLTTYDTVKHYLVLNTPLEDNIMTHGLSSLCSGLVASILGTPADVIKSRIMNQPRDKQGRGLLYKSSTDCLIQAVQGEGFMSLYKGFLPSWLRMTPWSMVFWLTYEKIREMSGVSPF

ANT1 [6] = target: T3, ANT1; experiment: SPQ fluorescence proton efflux in proteoliposomes; assay type: biochemical; set-up: gene SLC25A4; full length, N-terminal His6 tag kept, pelB leader removed; E. coli membranes; mainly monomer in liposomes; conditions: EYPC liposomes, valinomycin, pH 7.2, 25 C
UCP2 [7] = target: T5, UCP2; experiment: SPQ fluorescence proton efflux in proteoliposomes; assay type: biochemical; conditions: 500 uM GTP; EYPC with or without 2.5% cardiolipin, 100 uM palmitic or oleic acid, valinomycin, pH 7.2, 25 C
UCP4 [8] = target: T6, UCP4; experiment: SPQ fluorescence proton efflux in proteoliposomes; assay type: biochemical; conditions: 500 uM GTP; EYPC with or without 2.5% cardiolipin, 100 uM palmitic or oleic acid, valinomycin, pH 7.2, 25 C
[9] = target: B3; experiment: semi-native SDS-PAGE; two purified monomeric proteins co-reconstituted 1:1 in liposomes (UCP4:ANT1 also 3:1 and 1:3), regardless of lipid composition (EYPC with or without 2.5% CL); Coomassie staining; conditions: both partners purified
[10] = target: B2; experiment: as above; conditions: both partners purified
[11] = target: the molecule itself; experiment: semi-native SDS-PAGE; single purified protein reconstituted in liposomes of egg yolk extract (EYPC, ~60% PC) without added cardiolipin; 0.1% SDS in gel and running buffer, samples not heated; Coomassie staining
[12] = 100 uM palmitic acid as activator

Molecule: Nc1ncnc2c1ncn2[C@@H]1O[C@H](COP(=O)(O)OP(=O)(O)OP(=O)(O)O)[C@@H](O)[C@H]1O [ATP]
% inhibition at 500 uM [1]: ATP significantly inhibited combinations of UCP2 or UCP4 with ANT1
% inhibition at 500 uM [2]: ATP significantly inhibited combinations of UCP2 or UCP4 with ANT1
% inhibition at 500 uM (ANT1 [3]): proton transport was inhibited by ATP more effectively than by GTP

Molecule: CCCCCCCCCCCCCCCC(=O)O [PA, palmitic acid]
SPQ fluorescence proton efflux in proteoliposomes (PiT (PiT-B); [12]): both OA and PA interacted with all proteins and their combinations
fatty acid-activated proton efflux (qualitative) (UCP2 [4]; [12]): both OA and PA interacted with all proteins and their combinations
SPQ fluorescence proton efflux in proteoliposomes (UCP4 [5]; [12]): both OA and PA interacted with all proteins and their combinations
fatty-acid-activated proton transport (qualitative finding) (ANT1 [6]; [12]): both OA and PA interacted with all proteins and their combinations

Molecule: Nc1nc2c(ncn2[C@@H]2O[C@H](COP(=O)(O)OP(=O)(O)OP(=O)(O)O)[C@@H](O)[C@H]2O)c(=O)[nH]1 [GTP]
% inhibition at 500 uM (UCP2 [7]): GTP is overall a more effective inhibitor than ATP of UCP2 and UCP4
% inhibition at 500 uM (UCP4 [8]): GTP is overall a more effective inhibitor than ATP of UCP2 and UCP4

Molecule: CCCCCCCC/C=C\CCCCCCCC(=O)O [OA, oleic acid]
SPQ fluorescence proton efflux in proteoliposomes (PiT (PiT-B); 100 uM oleic acid as activator): For each individual protein, OA was a significantly more potent activator than PA
fatty acid-activated proton efflux (qualitative) (UCP2 [4]; 100 uM oleic acid as activator): For each individual protein, OA was a significantly more potent activator than PA
SPQ fluorescence proton efflux in proteoliposomes (UCP4 [5]; 100 uM oleic acid as activator): For each individual protein, OA was a significantly more potent activator than PA
fatty-acid-activated proton transport (qualitative finding) (ANT1 [6]; 100 uM oleic acid as activator): For each individual protein, OA was a significantly more potent activator than PA

binding result [9]: binds
binding result [10]: binds
B1: adenine nucleotide translocase 1 (ANT1), recombinant His6-tagged (natural protein, bovine)
chain: SDQALSFLKDFLAGGVAAAISKTAVAPIERVKLLLQVQHASKQISAEKQYKGIIDCVVRIPKEQGFLSFWRGNLANVIRYFPTQALNFAFKDKYKQIFLGGVDRHKQFWRYFAGNLASGGAAGATSLCFVYPLDFARTRLAADVGKGAAQREFTGLGNCITKIFKSDGLRGLYQGFNVSVQGIIIYRAAYFGVYDTAKGMLPDPKNVHIIVSWMIAQTVTAVAGLVSYPFDTVRRRMMMQSGRKGADIMYTGTVDCWRKIAKDEGPKAFFKGAWSNVLRGMGGAFVLVLYDEIKKFV
notes: bovine ANT1, UniProt P02722; Cloned in pET26b(+); also called ADP/ATP carrier; AAC; source: E. coli BL21 (DE3) or BL21 CodonPlus (DE3)-RIPL, extracted from bacterial membranes, purified (Ni-NTA IMAC, 1% OG); not shown: pelB leader, N-terminal, cleaved; His6, N-terminal, kept
stoichiometry N [11]: 2

Molecule: B2
stoichiometry N [11]: 4

Molecule: B3
binding result [10]: binds
stoichiometry N [11]: 4
